Values of other authors as cited in patent US20250179000A1 (Sanford Burnham Prebys Medical Discovery Institute, priority 2021, published 2025).

Experiments:
spinal cord GDNF levels = conditions: cited from earlier work
R6/2 mice = conditions: cited from earlier work
SMI-32+ motor neurons = conditions: abrogated by anti-GDNF antibodies; cited from earlier work
[1] = test system: cultured spinal cord astrocytes; conditions: wild-type and mGlu2 knockout mice, not mGlu3 knockout; cited from earlier work
[2] = test system: 6-OHDA lesioned nigrostriatal tract; conditions: cited from earlier work
[3] = test system: nigro-striatal damage induced by 1-methyl-4-phenyl-1,2,3,6-tetrahydropyridine in mice; conditions: acute or repeated 0.25 or 3 mg/kg i.p.; tyrosine hydroxylase-positive neuron count; cited from earlier work
[4] = test system: GDNF mRNA and protein levels in the mouse brain; conditions: cited from earlier work
SOD1G93A mice = conditions: cited from earlier work
reserpine-treated rat = conditions: cited from earlier work

Structure (SMILES): N[C@@]1(C(=O)O)CO[C@H]2[C@H](C(=O)O)[C@H]21 [LY379268]
- tolerance to GDNF-enhancing effect (spinal cord GDNF levels; 28 days s.c. osmotic minipumps, 0.5-5 mg/day): No tolerance developed
- spinal cord GDNF levels (spinal cord GDNF levels; acute 0.5, 1 or 5 mg/kg i.p., wild-type and mGlu2 knockout mice, not mGlu3 knockout): enhanced spinal cord GDNF levels
- expression of glutamate transporter GLT-1 in spinal cord (spinal cord GDNF levels; continuous infusion): enhanced the expression
- striatal neuron loss (R6/2 mice; 20 mg/kg daily s.c., at 10 weeks): rescue of a 15-20% striatal neuron loss
- motor function (R6/2 mice; 20 mg/kg daily s.c., distance traveled, speed, pauses, straight-line locomotion): normalization of motor function
- phenotype in R6/2 mice (R6/2 mice; 20 mg/kg daily subcutaneous, beginning at 4 weeks): dramatically improves the phenotype
- protection of motor neurons against excitotoxic death (SMI-32+ motor neurons): protected
- GDNF levels in astrocytes [1]: enhanced GDNF levels
- protection against nigral infusion of 6-OHDA ([2]; 10 mg/kg/day ip, 7 days): some protection
- protection against striatal infusion of 6-OHDA ([2]; 10 mg/kg/day ip, 21 days, striatum): significant protection in the striatum
- rotational behaviour ([2]; systemic 0.1, 1, 10 mg/kg ip, 1 month after unilateral 6-OHDA lesion): failed to effect rotational behaviour
- protection against nigro-striatal damage [3]: highly protective
- GDNF mRNA and protein levels ([4]; 0.25-3 mg/kg i.p.): increased
- time of peak GDNF mRNA levels ([4]; after injection): 3 h
- neurological disability (SOD1G93A mice; continuous treatment 1 or 5 mg/kg/day): beneficial effect on neurological disability
- spinal cord motor neurons (SMI-32+ cell count) (SOD1G93A mice; day 40 of treatment): rescued spinal cordmotor neurons
- locomotor activity (reserpine-treated rat; intracerebroventricular 1, 5, 10, 20 nmol, reserpine 5 mg/kg ip): dose-dependent increase in locomotor activity
- reserpine-induced akinesia (reserpine-treated rat; systemic 0.1, 1, 10 mg/kg ip): did not reverse reserpine-induced akinesia
